Reference: patent publication US5854010A, “Bioassay for detecting 2,3,7,8-tetrachlorodibenzo-para-dioxin and TCDD-like compounds and novel recombinant cell line useful therefor” (priority 1997, dated 1998)

System: mouse hepatoma Hepa1c1c7 cells (wild type)
Assay: TCDD-inducible luciferase activity, transient transfection with pGudLuc1.0 (lacks DREs)
Format: cell-based
Description: In general, the expression vectors pGudLuc1.0 and pGudLuc1.1 were prepared as follows. A 1330-bp HindIII fragment or an 1810-bp HindIII fragment isolated from the plasmid, pMpap1.0 or pMpap1.1, respectively (see, El-Fouly et al., supra), was subcloned into the HindIII site immediately upstream of the luciferase gene in the plasmid pGL2-basic (purchased from Promega).
More specifically, the following cells were obtained from the source indicated. Wild-type and AhR-defective (BPRc1 and TAO, respectively) mouse hepatoma (Hepa1c1c7) cells (Hepa1), derived from a C57B1 mouse liver tumor, were obtained from J. P. Whitlock, Jr. (Stanford University). These cells were grown as previously described by Miller et al. in "Biochemical and Genetic Analysis of Variant Mouse Hepatoma Cells Defective in the Induction of Benzo(a)pyrene Metabolizing Enzyme Activity", J. Biol. Chem., Vol. 258, pp. 3523-3527 (1983). […]
Using the stabilized luciferase assay system (purchased from Promega), luciferase activity in an aliquot of the cleared lysed cell supernatant (20 μl) was determined by mixing it with 100 µl of luciferase assay reagent (purchased from Promega) and measuring the resulting luminescence in a Turner Luminometer or Dynatech ML3000 microplate luminometer (light output was integrated over 1 minute after a delay time of 30 seconds).
Using a microplate adaptation of the method reported by Bradford in "A Rapid Sensitive Method for the Quantitation of Microgram Quantities of Protein Utilizing the Principle of Protein-Dye Binding", Anal. Biochem., […], pp. 248-254 (1976), luciferase activity was standardized to the protein concentration of the supernatant (with bovine serum albumin as the protein standard). Because of instrument differences in luminescence measurement and data output, luciferase activity was determined as relative light units (RLU) per microgram of protein, which was converted to milligram of protein as reported in the Tables below.

Compound: Clc1cc2c(cc1Cl)Oc1cc(Cl)c(Cl)cc1O2 [TCDD, 2,3,7,8-tetrachlorodibenzo-para-dioxin]
- Luciferase activity, TCDD in DMSO (Luc1.0, TCDD 1 nM, 24 h, mean of triplicate transfections): 0.1 RLU/mg protein
- fold induction at 0.001 µM (Mus musculus, Hepa-1c1c7, Luc1.0, TCDD 1 nM vs DMSO): 1
- Induction of luciferase activity (pGudLuc1.0, TCDD 1 nM): failed to induce luciferase activity
